Data taken from article PMC10113987, “A tool for nuclear imaging of the SARS-CoV-2 entry receptor: molecular model and preclinical development of ACE2-selective radiopeptides” (EJNMMI Research, 2023).
Like-named read-outs stand apart in the source and are kept apart here. Positions of bridges follow the written chain, without caps; N, C: chain ends. Residues, ends and D or L forms follow the SMILES beside them. *: point of attachment. HBEDCC = O=C(O)CCc1ccc(O)c(CN(CCN(CC(=O)O)Cc2cc(CCC(=O)*)ccc2O)CC(=O)O)c1

What was measured:
[1] = design: method as in doi:10.1016/0020-1693(94)04012-5; settings: cited from earlier work
[2] = In vitro stability in mouse blood plasma (TLC); type: in vitro ADME; settings: 37 °C
Procedure: (§1) The ^67Ga-labeled DX600-radiopeptides (20 MBq/nmol) were incubated in human and mouse plasma (10 MBq/200 µL), respectively, at 37 °C. Aliquots were taken at variable time points up to 24 h for analysis using reversed phase thin layer chromatography (TLC) with citrate buffer (0.1 M, pH 5.5) as a mobile phase. Images of the TLC plates were obtained using a storage phosphor system (Cyclone Plus, PerkinElmer) and quantified using the OptiQuant software (version 5.0, Bright Instrument Co Ltd., PerkinElmer™) (Supplementary Information).
(§2) The radiopeptides were prepared and TLC experiments were performed immediately after radiolabeling by applying the diluted radiopeptides in saline (1 µL; ~0.05 MBq) and [^67Ga]GaCl3 solution (1 µL; ~0.05 MBq) on the TLC plates. The radiopeptides were incubated in mouse or human plasma (10 MBq/200 µL) at 37° C. TLC was performed with an aliquot of the plasma samples at the given timepoints (30 min, 1 h, 3 h and 24 h). The TLC plates were exposed to a phosphor screen followed by development using a storage phosphor system (Cyclone Plus, PerkinElmer). The quantification of the signals was carried out using the OptiQuant software (version 5.0, Bright Instrument Co Ltd., PerkinElmer^TM). The obtained chromatograms were analyzed by determination of the peak area of the radiolabeled peptide, the released gallium-67 as well as degradation products of unknown structure. The quantity of the intact product was expressed as percentage of the sum of integrated peak areas of the entire chromatogram.

[3] = In vitro stability in human blood plasma (TLC); type: in vitro ADME; settings: 37 °C, whole incubation period of 24 h
Procedure: as §1, §2

[4] = tested on: HEK-ACE2/HEK-ACE-xenografted mice; assay: Biodistribution in HEK-ACE2/HEK-ACE xenografted mice; type: in vivo, mouse
Procedure: (§3) All applicable international, national, and/or institutional guidelines for the care and use of animals were followed. In particular, all animal experiments were carried out according to the guidelines of the Swiss Regulations for Animal Welfare. Preclinical studies have been ethically approved by the Cantonal Committee of Animal Experimentation and permitted by the responsible cantonal authorities (License N° 75743). Five-week-old female CD1/nude mice and female immunocompetent FVB mice were obtained from Charles River Laboratories (Sulzfeld, Germany) and fed with standard rodent chow ad libitum. CD1/nude were subcutaneously inoculated with HEK-ACE2 cells (6–8 × 10^6 cells in 100 µL PBS) on the right shoulder and approximately one week later with HEK-ACE (4 × 10^6 cells in 100 µL PBS) on the left shoulder. Imaging and biodistribution studies were performed 2–4 weeks later when the xenografts reached a size of 100–300 mm^3.
Biodistribution studies in xenograft-bearing mice were performed 2–4 weeks after cell inoculation. Mice were intravenously injected with [^67Ga]Ga-DOTA-DX600, [^67Ga]Ga-NODAGA-DX600, [^67Ga]Ga-HBED-CC-DX600 or [^67Ga]Ga-DOTA-BPP9a (3 MBq, 0.5 nmol, 100 µL) diluted in NaCl 0.9% containing 0.05% BSA. The mice were sacrificed 3 h after administration of the radiopeptides. Selected tissues and organs were collected, weighed and counted using a γ-counter. The results were listed as a percentage of the injected activity per gram of tissue mass (% IA/g), using counts of a defined volume of the original injection solution measured simultaneously, resulting in decay-corrected values. Statistical analysis was performed by applying a one‐way ANOVA test with a Tukey’s multiple comparisons post‐test (GraphPad Prism software, version 8.3.1).

[5] = tested on: HEK-ACE2/HEK-ACE-xenografted mice; assay: SPECT/CT imaging and quantification of retained activity in HEK-ACE2/HEK-ACE xenografted mice; type: in vivo, mouse; settings: SPECT/CT quantification, non-decay-corrected
Procedure: as §3
SPECT/CT imaging was performed using a four-head, multiplexing, multipinhole small-animal SPECT camera (NanoSPECT/CT™, Mediso Medical Imaging Systems, Budapest, Hungary). Each head was outfitted with a tungsten-based aperture of nine 1.4 mm-diameter pinholes and a thickness of 10 mm. CT scans of 7.5 min duration were followed by SPECT scans of ~ 50 min performed 1 h, 3 h and 24 h after injection of the respective radiopeptide (10 MBq, 0.5 nmol, 100 μL), diluted in NaCl 0.9% containing 0.05% BSA. During the scan, mice were anesthetized with a mixture of isoflurane and oxygen. The images were acquired using Nucline software (version 1.02, Mediso Ltd., Budapest, Hungary). The real-time CT reconstruction used a cone-beam-filtered backprojection. The reconstruction of SPECT data was performed with the HiSPECT software (version 1.4.3049, Scivis GmbH, Göttingen, Germany) using γ-energies of 93.20 keV (± 10%), 184.60 keV (± 10%) and 300.00 keV (± 10%) for gallium-67. All images were prepared using the VivoQuant post-processing software (version 3.0, inviCRO Imaging Services and Software, Boston, US). A Gauss post-reconstruction filter (full width at half maximum, 1 mm) was applied, and the scale of activity for gallium-67 was set as indicated on the SPECT/CT images. In order to estimate the wash-out of the DX600-based radiopeptides from the HEK-ACE2 xenografts and kidneys over time, the absolute amount of activity was determined in these tissues using the VivoQuant quantification tool. The accumulated activity (non-decay-corrected value in MBq) in the xenografts and kidneys, respectively, obtained at the 1 h p.i. timepoint was set as 100%. The percentage of activity retained in these tissues was determined at 3 h and 24 h p.i. based on the absolute activity determined at these timepoints.

FVB mice = assay: In vivo stability in immunocompetent FVB mice (TLC of blood plasma, urine, kidneys); design: species or system mouse; settings: 1 h p.i., fraction of accumulated activity
Procedure: In order to investigate the stability of the radiopeptides, the ^67Ga-labeled DX600 peptides (20 MBq/nmol) were tested in immunocompetent FVB mice (10 MBq in 100 μL per mouse). Before sacrificing, blood was collected from each mouse 1 h after injection of the radiopeptides. After centrifugation, the blood plasma was analyzed using reversed phase TLC with citrate buffer (0.1 M, pH 5.5) as a mobile phase. The kidneys were collected and processed to investigate the presence of intact radiopeptides and potential metabolites using the same TLC system. The analysis of the chromatograms was performed as described for the in vitro plasma stability (Additional file 1).
Methods: Immunocompetent FVB mice were injected with the DX600-based radiopeptides (n=2). One hour later, urine was collected and blood was sampled from the retrobulbar vein followed by centrifugation (10 min, 200 rcf). A drop of urine and blood plasma was analyzed using the TLC method described for in vitro stability experiments above (reversed phase as stationary phase and citrate buffer pH 5.5 as mobile phase). The data were also confirmed using normal phase TLC. Kidneys of mice were collected, cut into small pieces, homogenized in 200 μL buffer solution (ice-cold methanol containing 0.025% NH4OH) and centrifuged (5 min, 2300 rcf, 4° C) as described by Boss et al.. An aliquot of the supernatant of each sample was developed using the same TLC method as for urine and blood plasma samples. The TLC plates were exposed to a phosphor screen which was afterwards read using a storage phosphor system (Cyclone Plus, PerkinElmer). The quantification of the signals was carried out using the OptiQuant software (version 5.0, Bright Instrument Co Ltd., PerkinElmer^TM). The obtained chromatograms were analyzed by determination of the peak area of the radiolabeled peptide, the released gallium-67 as well as degradation products of unknown structure. The quantity of the intact product was expressed as percentage of the sum of integrated peak areas of the entire chromatogram.

[6] = 3 h after i.v. injection, decay-corrected, n = 3

Which results are given for `O=C(O)CCc1ccc(O)c(CN(CCN(CC(=O)O)Cc2cc(CCC(=O)O)ccc2O)CC(=O)O)c1` [HBED-CC, 3-(3-((2-((5-(2-carboxyethyl)-2-hydroxyphenyl)methyl-(carboxymethyl)amino)ethyl-(carboxymethyl)amino)methyl)-4-hydroxyphenyl)propanoic acid]?
logK of coordination ([1]; Ga^3+): 38; logK of coordination ([1]; Zn^2+): 18

For `CC(=O)N[C@@H](CCCCNC(=O)CCc1ccc(O)c(CN(CCN(CC(=O)O)Cc2cc(CCC(=O)O)ccc2O)CC(=O)O)c1)C(=O)NCC(=O)N[C@@H](CC(=O)O)C(=O)N[C@@H](Cc1ccc(O)cc1)C(=O)N[C@@H](CO)C(=O)N[C@@H](Cc1c[nH]cn1)C(=O)N[C@H]1CSSC[C@@H](C(=O)N[C@H](C(=O)N[C@@H](Cc2ccc(O)cc2)C(=O)N2CCC[C@H]2C(=O)N[C@@H](CC(=O)O)C(=O)N2CCC[C@H]2C(=O)N[C@@H](CCC(=O)O)C(=O)NCC(=O)NCC(=O)NCC(N)=O)[C@@H](C)O)NC(=O)[C@H](CCCCN)NC(=O)[C@H](Cc2c[nH]c3ccccc23)NC(=O)[C@H](Cc2c[nH]c3ccccc23)NC(=O)[C@@H]2CCCN2C(=O)[C@H](Cc2ccc(O)cc2)NC(=O)[C@H](Cc2ccc(O)cc2)NC(=O)[C@H](CCCNC(=N)N)NC(=O)[C@H](CC(C)C)NC(=O)[C@@H]2CCCN2C(=O)[C@H](CO)NC1=O` [[^67Ga]Ga-HBED-CC-DX600, metal not drawn] (Ac-K(HBEDCC)GDYSHCSPLRYYPWWKCTYPDPEGGG-NH2; disulfide 7-18), which “Intact radiopeptide in mouse blood plasma” value ([2]; 3 h) is on record?
The value was 87 ± 2%.

What about the “Intact radiopeptide in mouse blood plasma” value ([2]; 24 h) of the same molecule?
The value was 29 ± 1%.

And the “Intact radiopeptide in human blood plasma” value [3]?
The value was over 99%.

And the “Biodistribution: ACE2 xenograft (HEK-ACE2)” value [4, 6]?
The value was 12.3 ± 1.3 % IA/g.

And the “Biodistribution: ACE xenograft (HEK-ACE)” value [4, 6]?
The value was under 0.5 % IA/g.

What about the “Biodistribution: blood” value [4, 6] of the same molecule?
Its value is 0.09 ± 0.04 % IA/g.

And the “Biodistribution: bone” value [4, 6]?
The value was 0.05 ± 0.02 % IA/g.

And the “Biodistribution: heart” value [4, 6]?
Its value is 0.07 ± 0.03 % IA/g.

And the “Biodistribution: intestines” value [4, 6]?
Its value is 0.43 ± 0.31 % IA/g.

And the “Biodistribution: kidneys (renal retention)” value [4, 6]?
The value was 7.2 ± 2.2 % IA/g.

What about the “Biodistribution: liver” value [4, 6] of the same molecule?
The value was 0.23 ± 0.16 % IA/g.

And the “Biodistribution: lung” value [4, 6]?
The value was 0.13 ± 0.05 % IA/g.

What about the “Biodistribution: muscle” value [4, 6] of the same molecule?
Its value is 0.03 ± 0.02 % IA/g.

And the “Biodistribution: salivary glands” value [4, 6]?
Its value is 0.05 ± 0.02 % IA/g.

And the “Biodistribution: spleen” value [4, 6]?
Its value is 0.06 ± 0.03 % IA/g.

What about the “Biodistribution: stomach” value [4, 6] of the same molecule?
The value was 0.09 ± 0.03 % IA/g.

What about the “Biodistribution: ACE xenograft (HEK-ACE)” value ([4]; 3 h after i.v. injection, decay-corrected, n = 3, listed as [^67Ga]Ga-HBED-CC- DX600) of the same molecule?
Its value is 0.27 ± 0.33 % IA/g.

And the HEK-ACE2 xenograft-to-kidney ratio ([4]; 3 h after injection)?
Its HEK-ACE2 xenograft-to-kidney ratio is 1.77 ± 0.34.

And the “Activity retained in the kidneys relative to the 1 h p.i.-timepoint” value ([5]; 3 h p.i.)?
Its value is 30%.

And the “Activity retained in the kidneys relative to the 1 h p.i.-timepoint” value ([5]; 24 h p.i.)?
The value was under 1%.

And the “Intact radiopeptide in kidney homogenates” value (FVB mice)?
Its value is over 92%.

And the “Radiometabolites in kidney homogenates” value (FVB mice)?
Its value is ~ 7.5%.
